The target of one data set is Syk (Homo sapiens, UniProt P43405). The data set can be described thus: Syk enzyme inhibition (FRET). Format: biochemical. The note with it: Table 4a1. As for the experimental part: (§1) The enzyme inhibitory activities of compounds disclosed herein are determined by FRET using synthetic peptides labelled with both donor and acceptor fluorophores (Z-LYTE, Invitrogen Ltd., Paisley, UK).
(§2) The relevant enzyme (3000 ng/mL or 2000 ng/mL respectively, 2.5 μL) is incubated with the test compound (either 4 μg/mL, 0.4 μg/mL, 0.04 μg/mL, or 0.004 μg/mL, 2.5 μL each) for 2 hr at RT. The FRET peptides (8 μM, 2.5 μL), and appropriate ATP solutions (2.5 μL, 800 μM for c-Src, and 60 μM ATP for Syk) are then added to the enzymes/compound mixtures and incubated for 1 hr. Development reagent (protease, 5 μL) is added for 1 hr prior to detection in a fluorescence microplate reader (Varioskan® Flash, ThermoFisher Scientific).
(§3) In all cases, the site-specific protease cleaves non-phosphorylated peptide only and eliminates the FRET signal. Phosphorylation levels of each reaction are calculated using the ratio of coumarin emission (donor) over fluorescein emission (acceptor), for which high ratios indicate high phosphorylation and low ratios indicate low phosphorylation levels.

The target in a further data set is GSK3α (Homo sapiens, UniProt P49840). The data set is described as follows: GSK 3α enzyme inhibition (FRET), Method 1. The note with it: Table 4a1. The class given is biochemical. The protocol:
as §1
The following two assay variants are used for determination of GSK 3a inhibition.
The inhibitory activities of compounds of the invention against the GSK 3a enzyme isoform (Invitrogen), are evaluated by determining the level of activation/phosphorylation of the target peptide. The GSK3-α protein (500 ng/mL, 2.5 μL) is mixed with the test compound (2.5 μL at either 4 μg/mL, 0.4 μg/mL, 0.04 μg/mL, or 0.004 μg/mL) for 2 hr at RT. The FRET peptide (8 μM, 2.5 μL), which is a phosphorylation target for GSK3α, and ATP (40 μM, 2.5 μL) are then added to the enzyme/compound mixture and the resulting mixture incubated for 1 hr. Development reagent (protease, 5 μL) is added for 1 hr prior to detection in a fluorescence microplate reader (Varioskan® Flash, ThermoFisher Scientific).
as §3

Data set [1] relates to TNFα release, d-U937 cells. The data set can be described thus: LPS-induced TNFα release in d-U937 cells. The note with it: Homo sapiens, dU937; relative to 10 μg/mL BIRB796; Table 4c1; read-out: LPS Induced Release of Cytokine in d-U937 Cells, TNFα REC50. The class given is cell-based. The protocol:
(§4) (a) LPS-Induced TNFα/IL-8 Release in d-U937Cells
U937 cells, a human monocytic cell line, are differentiated into macrophage-type cells by incubation with PMA (100 ng/mL) for 48 to 72 hr. Cells are pre-incubated with final concentrations of test compound for 2 hr and are then stimulated with LPS (0.1 μg/mL; from E. Coli: 0111:B4, Sigma) for 4 hr. The supernatant is collected for determination of TNFα and IL-8 concentrations by sandwich ELISA (Duo-set, R&D systems). […] The relative 50% effective concentration (REC50) is determined from the resultant concentration-response curve. The inhibition of IL-8 production is calculated at each concentration of test compound by comparison with vehicle control.

For another data set, the system named is d-U937 cells. The data set can be described thus: Cell viability: MTT assay. Format: cell-based, human. The note with it: 1 μg/mL. As for the experimental part:
(l) The Effect of Test Compounds on Cell Viability: MTT Assay
Differentiated U937 cells are pre-incubated with each test compound (final concentration 1 μg/mL or 10 μg/mL in 200 μL media indicated below) under two protocols: the first for 4 hr in 5% FCS RPMI1640 media and the second in 10% FCS RPMI1640 media for 24 h. The supernatant is replaced with new media (200 μL) and MTT stock solution (10 μL, 5 mg/mL) is added to each well. After incubation for 1 hr the media are removed, DMSO (200 μL) is added to each well and the plates are shaken lightly for 1 hr prior to reading the absorbance at 550 nm. The percentage loss of cell viability is calculated for each well relative to vehicle (0.5% DMSO) treatment. Consequently an apparent increase in cell viability for drug treatment relative to vehicle is tabulated as a negative percentage.

For data set [2], the system named is IL-8 release, d-U937 cells. The data set can be described thus: LPS-induced IL-8 release in d-U937 cells. Format: cell-based. The note with it: Homo sapiens, dU937; Table 4c1; read-out: LPS Induced Release of Cytokine in d-U937 Cells, IL-8 IC50. The protocol: as §4
U937 cells, a human monocytic cell line, are differentiated into macrophage-type cells by incubation with PMA (100 ng/mL) for 48 to 72 hr. Cells are pre-incubated with final concentrations of test compound for 2 hr and are then stimulated with LPS (0.1 μg/mL; from E. Coli: 0111:B4, Sigma) for 4 hr. […] The relative 50% effective concentration (REC50) is determined from the resultant concentration-response curve.

Another data set concerns the target cSrc (Homo sapiens, UniProt P12931). The data set can be described thus: c-Src enzyme inhibition (FRET). Format: biochemical. Particulars: Table 4a1. The protocol:
as §1, §2, §3

Data set [3] concerns ICAM-1 expression, BEAS2B cells. The data set is described as follows: Poly I:C-induced ICAM-1 expression in BEAS2B cells. The class given is cell-based. The note with it: Homo sapiens, BEAS-2B; read-out: Poly IC induced ICAM1 in BEAS2B, IC50. As for the experimental part:
(f) Poly I:C-Induced ICAM-1 Expression in BEAS2B Cells
Poly I:C is used in these studies as a simple, RNA virus mimic. Poly I:C-Oligofectamine mixture (1 μg/mL Poly I:C, ±2% Oligofectamine, 25 μL; Invivogen Ltd., San Diego, Calif., and Invitrogen, Carlsbad, Calif., respectively) is transfected into BEAS2B cells (human bronchial epithelial cells, ATCC). Cells are pre-incubated with final concentrations of test compounds for 2 hr and the level of ICAM1 expression on the cell surface is determined by cell-based ELISA. At a time point 18 hr after poly I:C transfection, cells are fixed with 4% formaldehyde in PBS (100 μL) and then endogenous peroxidase is quenched by the addition of washing buffer (100 μL, 0.05% Tween in PBS: PBS-Tween) containing 0.1% sodium azide and 1% hydrogen peroxide. Cells are washed with wash-buffer (3×200 μL). and after blocking the wells with 5% milk in PBS-Tween (100 μL) for 1 hr, the cells are incubated with anti-human ICAM-1 antibody (50 μL; Cell Signalling Technology, Danvers, Mass.) in 1% BSA PBS overnight at 4° C.
The cells are washed with PBS-Tween (3×200 μL) and incubated with the secondary antibody (100 μL; HRP-conjugated anti-rabbit IgG, Dako Ltd., Glostrup, Denmark). […] The ICAM-1 signal is detected by reading the absorbance at 450 nm against a reference wavelength of 655 nm using a spectrophotometer. The cells are then washed with PBS-Tween (3×200 μL) and total cell numbers in each well are determined by reading absorbance at 595 nm after Crystal Violet staining (50 μL of a 2% solution in PBS) and elution by 1% SDS solution (100 μL) in distilled water. The measured OD 450-655 readings are corrected for cell number by dividing with the OD595 reading in each well. The inhibition of ICAM-1 expression is calculated at each concentration of test compound by comparison with vehicle control.

Sequence of cSrc (P12931 whole entry): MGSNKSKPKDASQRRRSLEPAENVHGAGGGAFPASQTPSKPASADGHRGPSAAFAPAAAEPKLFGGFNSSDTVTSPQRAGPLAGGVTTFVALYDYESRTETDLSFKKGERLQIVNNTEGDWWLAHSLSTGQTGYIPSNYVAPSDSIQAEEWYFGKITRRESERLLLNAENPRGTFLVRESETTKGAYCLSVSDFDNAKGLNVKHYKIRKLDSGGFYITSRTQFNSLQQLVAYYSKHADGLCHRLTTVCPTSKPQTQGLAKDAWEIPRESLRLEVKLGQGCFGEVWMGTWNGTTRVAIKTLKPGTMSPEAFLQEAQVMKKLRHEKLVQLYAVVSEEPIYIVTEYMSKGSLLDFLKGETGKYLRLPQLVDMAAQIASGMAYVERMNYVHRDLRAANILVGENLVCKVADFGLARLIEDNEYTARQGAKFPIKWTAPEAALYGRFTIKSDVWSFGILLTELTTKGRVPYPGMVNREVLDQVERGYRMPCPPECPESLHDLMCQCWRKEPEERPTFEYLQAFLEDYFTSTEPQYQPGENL
Sequence of GSK3α (P49840 whole entry): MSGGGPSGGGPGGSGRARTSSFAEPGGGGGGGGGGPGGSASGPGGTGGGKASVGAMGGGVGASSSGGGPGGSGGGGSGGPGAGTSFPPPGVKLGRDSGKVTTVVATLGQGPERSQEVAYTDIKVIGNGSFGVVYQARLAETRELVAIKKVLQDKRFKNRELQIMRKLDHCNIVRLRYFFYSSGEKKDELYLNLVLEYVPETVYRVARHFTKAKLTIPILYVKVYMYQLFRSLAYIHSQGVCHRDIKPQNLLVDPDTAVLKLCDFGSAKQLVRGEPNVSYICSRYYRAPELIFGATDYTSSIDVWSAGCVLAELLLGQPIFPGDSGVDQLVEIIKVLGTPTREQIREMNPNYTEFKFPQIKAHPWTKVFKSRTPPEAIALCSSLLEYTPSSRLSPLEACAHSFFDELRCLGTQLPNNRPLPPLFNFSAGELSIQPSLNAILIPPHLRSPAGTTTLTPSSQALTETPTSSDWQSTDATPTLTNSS

Usually IC50 stands for the concentration needed to halve the response being measured. Molecule `COc1ccc(-n2nc(C(C)C)cc2NC(=O)Nc2ccc(Oc3ccnc(Nc4cccc(C(=O)NCCN5CCOCC5)c4)n3)c3ccccc23)cc1` [Example 20, 3-((4-((4-(3-(3-isopropyl-1-(4-methoxyphenyl)-1H-pyrazol-5-yl)ureido)naphthalen-1-yl)oxy)pyrimidin-2-yl)amino)-N-(2-morpholinoethyl)benzamide] gave a 50% inhibitory concentration (IC50) at Syk of 15 nM. Further, the IC50 at GSK3α amounted to 317 nM. In addition, in data set [1], the EC50 was found to be 1.4 nM. In addition, in the data set with d-U937 cells, the “Cell viability at time point in d-U937 cells, 4 h” value is “−ve (−ve and +ve indicate that the value is below and above respectively, the no significant effect threshold, defined as 30% inhibition at 1 μg/mL at the time point indicated)”; the “Cell viability at time point in d-U937 cells, 24 h” value (“Cell viability at time point … 24 h” below) is “−ve (−ve and +ve indicate that the value is below and above respectively, the no significant effect threshold, defined as 30% inhibition at 1 μg/mL at the time point indicated)”.
Turning to `COc1ccc(-n2nc(C(C)(C)C)cc2NC(=O)Nc2ccc(Oc3ccnc(Nc4cc(OC)cc(C(=O)NCCN5CCOCC5)c4)n3)c3ccccc23)cc1` [Example 54, 3-((4-((4-(3-(3-(tert-butyl)-1-(4-methoxyphenyl)-1H-pyrazol-5-yl)ureido)naphthalen-1-yl)oxy)pyrimidin-2-yl)amino)-5-methoxy-N-(2-morpholinoethyl)benzamide], the IC50 is 5 nM against Syk, 217 nM on GSK3α and 0.8 nM in data set [2]. Moreover, in data set [1], the EC50 worked out at 0.2 nM. Further, the “Cell viability at time point in d-U937 cells, 4 h” value in the data set on d-U937 cells is “−ve (−ve and +ve indicate that the value is below and above respectively, the no significant effect threshold, defined as 30% inhibition at 1 μg/mL at the time point indicated)”. Further, the “Cell viability at time point … 24 h” value in the data set on d-U937 cells was “−ve (−ve and +ve indicate that the value is below and above respectively, the no significant effect threshold, defined as 30% inhibition at 1 μg/mL at the time point indicated)”.
In the case of `COc1cc(Nc2nccc(Oc3ccc(NC(=O)Nc4cc(C(C)(C)C)nn4-c4ccc(OC)nc4)c4ccccc34)n2)cc(C(=O)NCCN2CCOCC2)c1` [Example 57, 3-((4-((4-(3-(3-(tert-butyl)-1-(6-methoxypyridin-3-yl)-1H-pyrazol-5-yl)ureido)naphthalen-1-yl)oxy)pyrimidin-2-yl)amino)-5-methoxy-N-(2-morpholinoethyl)benzamide], the concentration for half-maximal inhibition (IC50) at cSrc is less than 1 nM; against GSK3α it was 283 nM; in data set [2], 1.5 nM; in data set [3] it was 1.9 nM. In addition, the EC50 in data set [1] stood at 0.6 nM. Besides, the “Cell viability at time point in d-U937 cells, 4 h” value in the data set on d-U937 cells is “−ve (−ve and +ve indicate that the value is below and above respectively, the no significant effect threshold, defined as 30% inhibition at 1 μg/mL at the time point indicated)”. Also, in the data set with d-U937 cells, the “Cell viability at time point … 24 h” value was “−ve (−ve and +ve indicate that the value is below and above respectively, the no significant effect threshold, defined as 30% inhibition at 1 μg/mL at the time point indicated)”.
As for `COc1cc(Nc2nccc(Oc3ccc(NC(=O)Nc4cc(C(C)C)nn4-c4ccc(C)cc4)c4ccccc34)n2)cc(C(=O)NCCO)c1` [Example 63, N-(2-hydroxyethyl)-3-((4-((4-(3-(3-isopropyl-1-(p-tolyl)-1H-pyrazol-5-yl)ureido)naphthalen-1-yl)oxy)pyrimidin-2-yl)amino)-5-methoxybenzamide], the IC50 was determined as 37 nM at cSrc, 865 nM at Syk, 1.4 nM in data set [2] and 10.1 nM in data set [3]. Further, the EC50 in data set [1] was 0.7 nM. Besides, the “Cell viability at time point in d-U937 cells, 4 h” value with d-U937 cells was “−ve (−ve and +ve indicate that the value is below and above respectively, the no significant effect threshold, defined as 30% inhibition at 1 μg/mL at the time point indicated)”. Also, the “Cell viability at time point … 24 h” value in the data set with d-U937 cells is “−ve (−ve and +ve indicate that the value is below and above respectively, the no significant effect threshold, defined as 30% inhibition at 1 μg/mL at the time point indicated)”.
Regarding `C=C(C)c1cc(NC(=O)Nc2ccc(Oc3ccnc(Nc4cc(OC)cc(C(=O)NCCN5CCOCC5)c4)n3)c3ccccc23)n(-c2ccc(OC)cc2)n1` [Example 86, 3-Methoxy-5-((4-((4-(3-(1-(4-methoxyphenyl)-3-(prop-1-en-2-yl)-1H-pyrazol-5-yl)ureido)naphthalen-1-yl)oxy)pyrimidin-2-yl)amino)-N-(2-morpholinoethyl)-benzamide], the 50% inhibitory concentration (IC50) is 8 nM at cSrc, 20 nM at Syk, greater than 13000 nM against GSK3α and 1.5 nM in data set [2]. Also, in the data set on d-U937 cells, the “Cell viability at time point in d-U937 cells, 4 h” value is “−ve (−ve and +ve indicate that the value is below and above respectively, the no significant effect threshold, defined as 30% inhibition at 1 μg/mL at the time point indicated)”. Moreover, in the data set on d-U937 cells, the “Cell viability at time point … 24 h” value was “−ve (−ve and +ve indicate that the value is below and above respectively, the no significant effect threshold, defined as 30% inhibition at 1 μg/mL at the time point indicated)”.
On to `COc1ccc(-n2nc(C(C)(C)C)cc2NC(=O)Nc2ccc(Oc3cc(Nc4cc(OC)cc(C(=O)NCCN5CCOCC5)c4)ncn3)c(C)c2C)cc1` [Example 91, 3-((6-(4-(3-(3-(tert-Butyl)-1-(4-methoxyphenyl)-1H-pyrazol-5-yl)ureido)-2,3-dimethylphenoxy)pyrimidin-4-yl)amino)-5-methoxy-N-(2-morpholinoethyl)benzamide], for which the IC50 at cSrc was less than 1.3 nM; at Syk, 131 nM; against GSK3α it was 3520 nM.

These data come from patent publication US20140057915A1, “KINASE INHIBITORS” (TOPIVERT PHARMA LIMITED, priority 2012, published 2014).
